Counter-ions that a name gives are not always drawn.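 All cell lines were grown in 96-well plates and treated with compound for 48 hours. Abbreviation: GI50, concentration required for 50% inhibition of growth.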 The source made the active and inactive calls. No stated cut-off is given here; in the data, active = GI50 up to about 1.1 µM and inactive = higher. Where a SMILES comes first, the peptide text is derived from it. [ ]: non-standard residue; d: D form. The star is where a group is joined. ξ: configuration not given here. ξPhe(4-NO2) = NC(Cc1ccc([N+](=O)[O-])cc1)C(=O)O; Boc = CC(C)(C)OC(=O)*; OBn = c1ccc(CO*)cc1
How the values were obtained:
Experiment in all cases: DTP human tumour cell line panel, 48 h
OVCAR-3 = system: OVCAR-3
HCT-15 = system: HCT-15
TK-10 = system: TK-10
HT-29 = system: HT-29
NCI/ADR-RES = system: NCI/ADR-RES
SK-MEL-28 = system: SK-MEL-28
SF-268 = system: SF-268
EKVX = system: EKVX
BT-549 = system: BT-549
UACC-257 = system: UACC-257
786-0 = system: 786-0
K562 = system: K562
MDA-MB-435 = system: MDA-MB-435
T47D = system: T47D
SK-MEL-5 = system: SK-MEL-5
RPMI-8226 = system: RPMI-8226
NCI-H226 = system: NCI-H226
U-251 = system: U-251
HCC 2998 = system: HCC 2998

Row | SMILES | GI50 (OVCAR-3) | GI50 (HCT-15) [µM] | GI50 (TK-10) | GI50 (HT-29) | GI50 (NCI/ADR-RES) | GI50 (SK-MEL-28) | GI50 (SF-268) | GI50 (EKVX) | GI50 (BT-549) | GI50 (UACC-257) | GI50 (786-0) | GI50 (K562) | GI50 (MDA-MB-435) | GI50 (T47D) | GI50 (SK-MEL-5) | GI50 (RPMI-8226) | GI50 (NCI-H226) | GI50 (U-251) | GI50 (HCC 2998)
1 | CC(=O)[C@@H]1C/C(=C\OCc2ccccc2)O[C@H]1C | > 100 µM (inactive) | > 100 | > 100 µM (inactive) | > 100 µM (inactive) | > 100 µM (inactive) | > 100 µM (inactive) | > 100 µM (inactive) | > 100 µM (inactive) | > 100 µM (inactive) | > 100 µM (inactive) | > 100 µM (inactive) | 54 µM (inactive) | > 100 µM (inactive) | > 100 µM (inactive) | > 100 µM (inactive) | > 100 µM (inactive) | > 100 µM (inactive) | > 100 µM (inactive) | 
2 | CCOC(=O)c1c(SCCN2CCCC2)n(-c2ccccc2)c(=S)n(-c2ccccc2)c1=O | 1.78 µM (inactive) | 2.21 | 1.67 µM (inactive) | 4.89 µM (inactive) | 25.8 µM (inactive) | 2.75 µM (inactive) | 4.85 µM (inactive) | 13.9 µM (inactive) | 5.37 µM (inactive) | 1.69 µM (inactive) | 1.55 µM (inactive) | 2.12 µM (inactive) | 2.55 µM (inactive) | 2.72 µM (inactive) | 3.07 µM (inactive) | 2.18 µM (inactive) | 16.8 µM (inactive) | 6.14 µM (inactive) | 1.87 µM (inactive)
3 | Nc1ccc2nc(N)n[n+]([O-])c2c1 | > 100 µM (inactive) | > 100 | > 100 µM (inactive) | > 100 µM (inactive) | > 100 µM (inactive) | > 100 µM (inactive) | > 100 µM (inactive) | > 100 µM (inactive) | > 100 µM (inactive) | > 100 µM (inactive) | > 100 µM (inactive) | > 100 µM (inactive) | > 100 µM (inactive) | > 100 µM (inactive) | > 100 µM (inactive) | > 100 µM (inactive) | > 100 µM (inactive) | > 100 µM (inactive) | 
4 | CC(C)(C)OC(=O)NC(Cc1ccc([N+](=O)[O-])cc1)C(=O)NCC(=O)OCc1ccccc1 (centres undefined) (Boc-[ξPhe(4-NO2)]-Gly-OBn) | 19 µM (inactive) | 19.4 | > 100 µM (inactive) | 25.5 µM (inactive) | 42 µM (inactive) | 24 µM (inactive) | 19.5 µM (inactive) | > 100 µM (inactive) | 25.7 µM (inactive) |  | 11.4 µM (inactive) | 15 µM (inactive) | 16.9 µM (inactive) | 44.1 µM (inactive) | 19.4 µM (inactive) | 21 µM (inactive) | 26.7 µM (inactive) | 20.7 µM (inactive) | 19.6 µM (inactive)
5 | COc1ccc(-c2c3c(n(C4OC(CO)C(O)C(O)C4O)c(=S)c2C#N)CC(C)(C)CC3=O)cc1 (centres undefined) | > 100 µM (inactive) | > 100 | > 100 µM (inactive) | > 100 µM (inactive) | > 100 µM (inactive) | > 100 µM (inactive) | > 100 µM (inactive) |  | > 100 µM (inactive) | > 100 µM (inactive) | > 100 µM (inactive) | > 100 µM (inactive) | > 100 µM (inactive) | 13.8 µM (inactive) | > 100 µM (inactive) | 89.7 µM (inactive) | 96.6 µM (inactive) | > 100 µM (inactive) | > 100 µM (inactive)
6 | O=C(NCCCCCCNC(=O)c1cc(-c2ccccc2)nc2ccccc12)c1cc(-c2ccccc2)nc2ccccc12 | > 100 µM (inactive) | > 100 | > 100 µM (inactive) | > 100 µM (inactive) | > 100 µM (inactive) | > 100 µM (inactive) | > 100 µM (inactive) | > 100 µM (inactive) | > 100 µM (inactive) | > 100 µM (inactive) | 31.6 µM (inactive) | > 100 µM (inactive) | > 100 µM (inactive) | > 100 µM (inactive) | > 100 µM (inactive) | > 100 µM (inactive) | > 100 µM (inactive) | 88.3 µM (inactive) | 
7 | Cc1cc2nc3c(C#N)c(-c4ccccc4)cc(Nc4cccc(C(F)(F)F)c4)n3c2cc1C | 2.21 µM (inactive) | 4.73 | 7.69 µM (inactive) |  | 4.07 µM (inactive) | 9.02 µM (inactive) | 6.97 µM (inactive) | 4.68 µM (inactive) | 10.5 µM (inactive) | 3.48 µM (inactive) | 4.4 µM (inactive) | 0.392 µM (active) | 5.13 µM (inactive) | 4.16 µM (inactive) | 3.21 µM (inactive) | 1.61 µM (inactive) | 3.86 µM (inactive) |  | 3.84 µM (inactive)
8 | Cc1ccc(Cl)c2c(=O)c3ccc(N)cc3sc12 | 20 µM (inactive) | 21.1 | 38.3 µM (inactive) | 17.5 µM (inactive) | 15.1 µM (inactive) |  | 27.9 µM (inactive) | 5.55 µM (inactive) | 29.4 µM (inactive) | 25.8 µM (inactive) | 24.9 µM (inactive) | 18.4 µM (inactive) |  | 18.9 µM (inactive) | 17.5 µM (inactive) | 15 µM (inactive) | 17.3 µM (inactive) |  | 
9 | NCCc1cc(O)c(O)cc1O [OXIDOPAMINE HYDROCHLORIDE] | 55.7 µM (inactive) | 17.1 | 62.5 µM (inactive) | 32.3 µM (inactive) | 34.4 µM (inactive) | > 100 µM (inactive) | 21.8 µM (inactive) | 26.6 µM (inactive) | 16.6 µM (inactive) | 20.4 µM (inactive) | 18.6 µM (inactive) | 21.5 µM (inactive) | 18.9 µM (inactive) | 23.1 µM (inactive) | 18.5 µM (inactive) | 3.19 µM (inactive) |  |  | 56.2 µM (inactive)
10 | CCOC(=O)C1C(=O)C=C(c2cc(C)ccc2O)CC1c1cccc(Br)c1 (centres undefined) | 21.5 µM (inactive) | 3.24 | 17.7 µM (inactive) | 18.9 µM (inactive) | 13.4 µM (inactive) |  | 19.5 µM (inactive) | 24 µM (inactive) | 24.9 µM (inactive) | 15.7 µM (inactive) | 17.6 µM (inactive) | 11.7 µM (inactive) | 2.39 µM (inactive) | 18.6 µM (inactive) | 14.2 µM (inactive) | 13.9 µM (inactive) | 15.7 µM (inactive) | 16.1 µM (inactive) | 17.9 µM (inactive)
11 | Br/C(=N\N=c1/nn[nH][nH]1)c1ccncc1 | > 100 µM (inactive) | > 100 | > 100 µM (inactive) | > 100 µM (inactive) | > 100 µM (inactive) | > 100 µM (inactive) | > 100 µM (inactive) | > 100 µM (inactive) | > 100 µM (inactive) | > 100 µM (inactive) | > 100 µM (inactive) | > 100 µM (inactive) | > 100 µM (inactive) | > 100 µM (inactive) | > 100 µM (inactive) | > 100 µM (inactive) | > 100 µM (inactive) | > 100 µM (inactive) | 
12 | [B].c1ccc([Si](OCCN2CC2)(c2ccccc2)c2ccccc2)cc1 | 16.4 µM (inactive) | 7.66 | 15.5 µM (inactive) | 14 µM (inactive) | 14.1 µM (inactive) |  | 11 µM (inactive) | 12.8 µM (inactive) | 17.5 µM (inactive) | 15.3 µM (inactive) | 14.2 µM (inactive) | 8.3 µM (inactive) | 13.8 µM (inactive) | 15.6 µM (inactive) | 15.8 µM (inactive) | 13.9 µM (inactive) | 16 µM (inactive) | 14 µM (inactive) | 13.6 µM (inactive)
13 | CCCCCCCCCCCCCCCCCCNc1ccn(C2OC(COP(=O)(O)OCC3CCC(n4cnc5c(=O)[nH]cnc54)O3)C(O)C2O)c(=O)n1 (centres undefined) | > 100 µM (inactive) | 97.5 | 19.5 µM (inactive) | > 100 µM (inactive) | > 100 µM (inactive) | > 100 µM (inactive) | > 100 µM (inactive) | > 100 µM (inactive) | > 100 µM (inactive) | > 100 µM (inactive) | 43.5 µM (inactive) |  | > 100 µM (inactive) | 95.5 µM (inactive) | > 100 µM (inactive) |  | > 100 µM (inactive) | > 100 µM (inactive) | 
14 | NCCNCC(O)CO (centres undefined) | > 100 µM (inactive) | > 100 | > 100 µM (inactive) | > 100 µM (inactive) | > 100 µM (inactive) | > 100 µM (inactive) | > 100 µM (inactive) | > 100 µM (inactive) | > 100 µM (inactive) | > 100 µM (inactive) | > 100 µM (inactive) | > 100 µM (inactive) | > 100 µM (inactive) | > 100 µM (inactive) | > 100 µM (inactive) | > 100 µM (inactive) | > 100 µM (inactive) | > 100 µM (inactive) | 
15 | c1ccc2c(c1)nc1n2CCCn2ccnc2-1 | > 100 µM (inactive) | 41.1 |  | > 100 µM (inactive) | 27 µM (inactive) | > 100 µM (inactive) | > 100 µM (inactive) | 43 µM (inactive) | > 100 µM (inactive) |  | > 100 µM (inactive) | > 100 µM (inactive) |  | 57.3 µM (inactive) | 87.3 µM (inactive) | > 100 µM (inactive) | 68.7 µM (inactive) | > 100 µM (inactive) | 
16 | O=C1c2ccccc2C(=O)c2c1ccc1c2OCO1 | > 100 µM (inactive) | > 100 | > 100 µM (inactive) | > 100 µM (inactive) | > 100 µM (inactive) | > 100 µM (inactive) | > 100 µM (inactive) | > 100 µM (inactive) | > 100 µM (inactive) | > 100 µM (inactive) | > 100 µM (inactive) |  | > 100 µM (inactive) | > 100 µM (inactive) | > 100 µM (inactive) | > 100 µM (inactive) | 58.7 µM (inactive) | > 100 µM (inactive) | > 100 µM (inactive)

— ChEMBL document CHEMBL1201862, “PubChem BioAssay data set” (2004)
